Assay results as given in patent US9126976B2 (Merck Sharp & Dohme Corp., priority 2011, dated 2015).

Target: T1, CETP (Homo sapiens (Human), UniProt P11597)
Assay: RTA assay, CETP-catalyzed CE and TG transfer, recombinant CETP (2% human serum)
Assay type: biochemical
Details: not given
Description: (§1) In Vitro Radioactive Assays of CETP-Catalyzed CE and TG Transfer (RTA Assay)
(§2) Reagents and sources are: [3H] cholesteryl oleate (GE #TRK.886), [3H] Triolein (Perkin-Elmer NET-431), Butylated hydroxyl toluene (Aldrich, #D4740-4), DOPC (Sigma, # P6354), Sodium Bromide (Fisher scientific #S255-500), PEG 8000 (Fisher, #BP233-1), and human HDL (Intracel Corp #RP-036).
(§3) An in vitro assay for determining IC50's to identify compounds that inhibit CETP transfer activity is performed based on a modification of a published method (Morton and Zilversmit, (1981) A plasma inhibitor of triglyceride and cholesteryl ester transfer activities, J. Biol. Chem. 256(23), 11992-11995). The ability of inhibitors to alter CETP activity is performed using two different assays: one using recombinant CETP and one using an endogenous plasma source of CETP. Both assays measure the transfer of [3H] cholesteryl oleate or [3H] triolein from exogenous LDL to HDL.
(§4) Radiolabeled donor particles are generated by first combining 100 μl of 200 μM butylated hydroxyl toluene in CHCl3, 216 μL of 21.57 mM DOPC in EtOH, and either 500 μCi [3H]-triolein (Perkin Elmer #NET-431) or 500 μCi [3H]-cholesteryl oleate (GE #TRK886) in a glass tube. Reagents are mixed, dried under nitrogen, and then resuspended in 2 mL of 50 mM Tris, 27 μM EDTA at pH 7.4. After a brief vortex, the solution is sonicated until clear and mixed with 20 mL of fresh human serum. The mixture is incubated overnight at 37° C. The [3H] labeled LDL substrate is separated at 1.063 g/ml density by sequential ultracentrifugal flotation in NaBr according to the method by (Havel, Eder et al. 1955; Chapman, Goldstein et al. 1981). Once isolated the particles are dialyzed 3× in CETP buffer (50 mM Tris, pH 7.4, 100 mM NaCl, 1 mM EDTA). Human HDL is purchased from Intracel and used as the acceptor particles.
(§5) Transfer assays are performed in a 96-well v-bottom polypropylene plate. For the RTA using recombinant CETP (2% RTA), an assay cocktail is prepared with the final concentrations 128 μg/mL HDL, 20 nM rCETP, 2% human serum, and 1×CETP buffer. 1 μL of each test compound diluted in DMSO is added to 47 μL of assay cocktail per well and incubated at 37° C. for 1 hour. To initiate the transfer reaction, 2 μL radiolabeled LDL is added. After an additional 60 min of incubation at 37° C., the transfer action is terminated by precipitation of LDL with an equal volume of 20% W/V PEG 8000. The plates are centrifuged at 2000 rpm for 30 minutes at 4° C. A 40 μL aliquot of the HDL-containing supernatant is transferred to a Packard Optiplate™ with 200 μL of MicroScint™ 20. After mixing, plates are counted by liquid scintillation. Counts present in the supernatant for blanks (wells containing only HDL acceptor, CETP buffer and DMSO) are subtracted from those containing test compounds and used to correct for non-specific transfer.
Comparison of the counts of samples with inhibitors to an uninhibited (DMSO only) positive control yield a percent inhibition. A plot of percent inhibition vs. log of inhibitor concentration, fit to a Sigmoidal 4 parameter equation is used to calculate IC50.
Target sequence in this assay (P11597 18-493 limits assumed): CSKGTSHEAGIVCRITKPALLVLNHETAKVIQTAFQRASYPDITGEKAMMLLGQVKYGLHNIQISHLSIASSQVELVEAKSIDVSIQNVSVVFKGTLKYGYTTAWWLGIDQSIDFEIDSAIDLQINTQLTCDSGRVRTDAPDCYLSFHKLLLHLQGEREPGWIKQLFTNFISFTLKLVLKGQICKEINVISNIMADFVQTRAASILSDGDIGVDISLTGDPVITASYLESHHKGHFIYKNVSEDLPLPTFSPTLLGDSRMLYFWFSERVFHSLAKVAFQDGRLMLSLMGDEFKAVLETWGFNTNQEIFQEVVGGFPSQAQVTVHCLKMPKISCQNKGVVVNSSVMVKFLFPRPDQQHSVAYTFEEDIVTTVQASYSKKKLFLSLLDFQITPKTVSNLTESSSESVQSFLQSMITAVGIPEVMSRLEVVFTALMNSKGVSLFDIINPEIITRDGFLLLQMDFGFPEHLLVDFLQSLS

Row | SMILES | IC50 [nM]
1 | O[C@H](CN1c2ccccc2N(Cc2cccc(OC(F)(F)F)c2)C[C@H]1c1ccccc1)C(F)(F)F [Example 1, (R)-3-((R)-4-(3-trifluoromethoxy)-2-phenyl-3,4-dihydroquinoxalin-1(2H)-yl)-1,1,1-trifluoropropan-2-ol] | 19
2 | O[C@@H](CN1c2ccccc2N(Cc2cccc(OC(F)(F)F)c2)C[C@H]1c1ccccc1)C(F)(F)F [Example 2, (S)-3-((R)-4-(3-trifluoromethoxy)-2-phenyl-3,4-dihydro-quinoxalin-1(2H)-yl)-1,1,1-trifluoro-propan-2-ol] | 1350
3 | O[C@H](CN1c2ccccc2N(Cc2cc(C(F)(F)F)cc(C(F)(F)F)c2)C[C@H]1c1ccccc1)C(F)(F)F [Example 3] | 74
4 | O[C@H](CN1c2ccccc2N(Cc2cccc(OC(F)(F)C(F)F)c2)C[C@H]1c1ccccc1)C(F)(F)F [Example 4, (R)-1,1,1-trifluoro-3-((R)-2-phenyl-4-(3-(1,1,2,2-tetrafluoroethoxy)benzyl)-3,4-dihydroquinoxalin-1(2H)-yl)-propan-2-ol] | 112
5 | O[C@H](CN1c2ccccc2N(Cc2cc(OC(F)(F)F)ccc2F)C[C@H]1c1ccccc1)C(F)(F)F [Example 5, (R)-1,1,1-trifluoro-3-((R)-4-(2-fluoro-5-(trifluoromethoxy)benzyl)-2-phenyl-3,4-dihydroquinoxalin-1(2H)-yl)-propan-2-ol] | 11
6 | CCc1cc(CN2C[C@@H](c3ccccc3)N(C[C@@H](O)C(F)(F)F)c3ccccc32)ccc1Cl [Example 6, (R)-3-((R)-4-(4-chloro-3-ethylbenzyl)-2-phenyl-3,4-dihydroquinoxalin-1(2H)-yl)-1,1,1-trifluoropropan-2-ol] | 30
7 | O[C@H](CN1c2ccccc2N(Cc2cccc(F)c2)C[C@H]1c1ccccc1)C(F)(F)F [Example 7, (R)-3-((R)-4-(3-fluorobenzyl)-2-phenyl-3,4-dihydroquinoxalin-1(2H)-yl)-1,1,1-trifluoropropan-2-ol] | 110
8 | CCOc1cccc(CN2C[C@@H](c3ccccc3)N(C[C@@H](O)C(F)(F)F)c3ccccc32)c1 [Example 8, (R)-3-((R)-4-(3-ethoxybenzyl)-2-phenyl-3,4-dihydroquinoxalin-1(2H)-yl)-1,1,1-trifluoropropan-2-ol] | 301
9 | O[C@H](CN1c2ccccc2N(Cc2cccc(C(F)(F)F)c2)C[C@H]1c1ccccc1)C(F)(F)F [Example 9, (R)-3-((R)-4-(3-trifluoromethylbenzyl)-2-phenyl-3,4-dihydroquinoxalin-1(2H)-yl)-1,1,1-trifluoropropan-2-ol] | 47
10 | O[C@H](CN1c2ccccc2N(Cc2cccc(OC(F)(F)F)c2)C[C@H]1c1ccccc1)C(F)(F)F [Example 17, (R)-3-((R)-4-(3-trifluoromethoxy)-2-phenyl-3,4-dihydroquinoxalin-1(2H)-yl)-1,1,1-trifluoro-propan-2-ol] | 34

Target: endogenous CETP from serum (Homo sapiens (Human), UniProt P11597)
Sequence (P11597 18-493 limits assumed): as above
Assay: RTA assay using endogenous CETP from serum (95% human serum)
Assay type: biochemical
Details: RTA in 95% human serum, Table 2
Description: as §1, §2, §3, §4
as §5, with “Counts present in the supernatant for blanks (wells containing only HDL acceptor, CETP buffer and DMSO) are subtracted from those containing test compounds and used to correct for non-specific transfer.” left out

Row | SMILES | IC50 [nM]
11 | O[C@H](CN1c2ccc(F)cc2N(Cc2cccc(OC(F)(F)F)c2)CC1c1cccc(OC(F)F)c1)C(F)(F)F (stereo partly drawn) [Example 58] | 16
12 | CC(C)(O)c1ccc(C2CN(Cc3cccc(OC(F)(F)F)c3)c3ccccc3N2C[C@@H](O)C(F)(F)F)cc1 (stereo partly drawn) [Example 59] | 24
13 | O[C@H](CN1c2ccccc2N(Cc2cccc(OC(F)F)c2)CC1c1cccc(OC(F)F)c1)C(F)(F)F (stereo partly drawn) [Example 60] | 14
14 | O[C@H](CN1c2ccccc2N(Cc2cccc(OC(F)(F)F)c2)CC1c1cccc(OC(F)F)c1)C(F)(F)F (stereo partly drawn) [Example 61] | 7.5

System: not given
Assay: not given
Details: torcetrapib and atorvastatin concomitantly compared with atorvastatin alone; cited from earlier work

Row | SMILES | mortality
15 | CCOC(=O)N1c2ccc(C(F)(F)F)cc2[C@@H](N(Cc2cc(C(F)(F)F)cc(C(F)(F)F)c2)C(=O)OC)C[C@H]1CC [torcetrapib] | higher incidence of mortality

Target: T1, CETP
Assay: Scintillation Proximity Assay (SPA) for CETP activity
Assay type: biochemical
Details: Table 1, read-out: IC50
Description: Protocol: Scintillation Proximity Assay (SPA) for CETP Activity
First, low density lipoprotein (LDL) (Meridian) was biotinylated by incubating LDL with biotin for 1 hour on ice, after which it was dialyzed to remove free biotin. Then compounds at varying concentrations were incubated with 15 nM CETP (reagent production group, In Vitro Pharmacology, MRL Rahway) and 50 ug/ml of the biotinylated LDL in 50 mM HEPES, 150 mM NaCl, pH 7.4, for 1 hour at 37° C. The reaction was started by adding 3H-cholesterol ester high density lipoprotein (HDL) (American Radiochemicals Corp) at a concentration of ˜0.6 nM. The reaction proceeded for 2 hours at 37° C., after which time it was quenched by the addition of 12% acetic acid. PVT streptavadin-coated scintillation proximity beads, which had been brought to room temperature, were then added at a concentration of 4 mg/ml. The assay was then mixed and counted after one half hour in a Microbeta plate reader.
Target sequence in this assay (P11597 18-493): as the sequence (P11597 18-493 limits assumed) above

Row | SMILES | IC50 [nM]
16 | O[C@H](CN1c2ccccc2N(C2CCCc3ccccc32)CC1c1cccc(C(F)(F)F)c1)C(F)(F)F (stereo partly drawn) [Example 57, (2R)-1,1,1-trifluoro-3(4-(1,2,3,4-tetrahydronaphthalen-1-yl)-2-(3-trifluoromethyl)phenyl)-3,4-dihydroquinoxalin-1(2H)-yl-propan-2-ol] | 12

Same assay, conditions: Table 2, read-out: IC50 SPA

Row | SMILES | IC50 [nM]
17 | O[C@H](CN1c2ccccc2N(Cc2ccnc(N3CCOCC3)c2)C[C@H]1c1cccc(C(F)(F)F)c1)C(F)(F)F [Example 62] | 326
18 | O[C@H](CN1c2ccccc2N(Cc2ncccc2N2CCOCC2)C[C@H]1c1cccc(C(F)(F)F)c1)C(F)(F)F [Example 63] | 1570
19 | O[C@H](CN1c2ccccc2N(Cc2cccc(OC(F)F)c2)C[C@H]1c1cccc(C(F)(F)F)c1)C(F)(F)F [Example 64] | 16
20 | O[C@H](CN1c2c(ccc(F)c2F)N(Cc2cccc(OC(F)(F)F)c2)CC1c1cccc(C(F)(F)F)c1)C(F)(F)F (stereo partly drawn) [Example 65] | 157
21 | O[C@H](CN1c2ccccc2N(CC2=CCCCC2)C[C@H]1c1cccc(OC(F)(F)F)c1)C(F)(F)F [Example 66] | 8
22 | O[C@H](CN1c2ccccc2N(CC2CCOCC2)C[C@H]1c1cccc(OC(F)(F)F)c1)C(F)(F)F [Example 67] | 29
23 | O[C@H](CN1c2ccccc2N(Cc2cccc(OC(F)(F)F)c2)CC1c1ccc(-c2ccccc2)cc1)C(F)(F)F (stereo partly drawn) [Example 68] | 25
24 | O[C@H](CN1c2ccccc2N(Cc2cccc(OC(F)(F)F)c2)CC1c1cccc(-c2ccccc2)c1)C(F)(F)F (stereo partly drawn) [Example 69] | 163

System: not given
Assay: not given
Details: patients treated with anacetrapib; cited from earlier work

Row | SMILES | increase in mortality
25 | COc1cc(F)c(C(C)C)cc1-c1ccc(C(F)(F)F)cc1CN1C(=O)O[C@H](c2cc(C(F)(F)F)cc(C(F)(F)F)c2)[C@@H]1C [anacetrapib] | unlikely

Same assay, conditions: patients, with baseline statin therapy, compared with just a statin; cited from earlier work

Row | SMILES | decrease of LDL-C [%] | increase of HDL-C [%]
26 | COc1cc(F)c(C(C)C)cc1-c1ccc(C(F)(F)F)cc1CN1C(=O)O[C@H](c2cc(C(F)(F)F)cc(C(F)(F)F)c2)[C@@H]1C [anacetrapib] | 40 | 138
